What was measured:
[1] = system: matrix metalloproteinases MMP2 and MMP9; test: EnzCheck gelatinase assay (MMP activity); assay type: biochemical; conditions: concentrations up to 100 μM; HT1080 supernatant activated with phenylmercuric acetate
Experimental: HT1080 cells were grown in the presence of dexamethasone for 24 hrs and the supernatant collected and treated with phenylmercuric acetate to activate proMMPs.

Mat B-III = test: In vitro proliferation, Mat B-III cells; assay type: cell-based, rat
Experimental: Å6 was also tested for its ability to inhibit the proliferation of cells other than endothelial cells in vitro.

uPAR = uPAR (Homo sapiens, UniProt Q03405); test: Binding of uPA to uPAR
uPAR, sequence (Q03405 23-305 limits assumed): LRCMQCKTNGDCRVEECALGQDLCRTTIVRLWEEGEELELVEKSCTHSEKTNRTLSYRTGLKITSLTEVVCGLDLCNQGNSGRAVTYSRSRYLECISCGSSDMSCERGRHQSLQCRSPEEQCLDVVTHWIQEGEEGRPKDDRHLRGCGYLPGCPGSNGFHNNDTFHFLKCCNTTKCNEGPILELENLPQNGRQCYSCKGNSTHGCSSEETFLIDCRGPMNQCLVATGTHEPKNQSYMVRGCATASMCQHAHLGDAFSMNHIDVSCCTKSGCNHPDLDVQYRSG

U87 tumors = test: U87 glioblastoma orthotopic model; assay type: in vivo, mice
Experimental: U87 cells were inoculated into the ventricles of nude mice and treatment was initiated 72 hrs after inoculation. Tumor volume was determined using caliper measurements after euthanasia and necropsy.
A: Control; B: Å6 only; C: CDDP only; D: Å6+CDDP.
U87 tumors were surgically inoculated into the cerebral ventricles of mice. The animals were allowed to recover for 72 hours at which time treatment with Å6 (75 mg/kg/day IP bid), CDDP (3 mg/kg/day given every other day from day 4×6 administrations), or a combination of Å6+CDDP was initiated,
Animals were treated for 21 days at which time they were euthanized and their brains evaluated for the presence of tumor. Transverse sections were stained with hematoxylin and eosin (H&E).
Tumor sections were also evaluated for microvessel density using antibodies specific for mouse-CD31 in immunostaining. Very few CD31^+ foci were evident in animals treated with the combination of Å6+CDDP.
Tumors were established as in the previous section, and the same therapeutic regimens were employed. Treatment was discontinued at day 21, and survival was measured. Control animals appeared moribund around day 25 and all of the animals in this group were dead by day 30.

PC-3 cells = test: PC-3 CAT metastasis model; assay type: in vivo, mice; conditions: minipump 100 mg/kg/day, 14 or 21 days
Experimental: The compounds of this invention are also tested for inhibition of late metastasis using an experimental metastasis model (Crowley et al., 1993). Late metastasis involves the steps of attachment and extravasation of tumor cells, local invasion, seeding, proliferation and angiogenesis.
Human prostatic carcinoma cells (PC-3) transfected with a reporter gene, preferably the green fluorescent protein (GFP) gene, but as an alternative with a gene encoding the enzymes chioramphenicol acetyl-transferase (CAT), luciferase or LacZ. This permits utilization of either of these markers (fluorescence detection of GFP or histochemical colorimetric detection of enzymatic activity) for following the fate of these cells. Cells are injected, preferably iv, and metastases identified after about 14 days, particularly in the lungs but also in regional lymph nodes, femurs and brain. This mimics the organ tropism of naturally occurring metastases of prostate cancer. For example, GFP-expressing PC-3 cells (1×10^6 cells per mouse) are injected iv into the tail veins of nude (nu/nu) mice. Animals are also implanted with mini-pumps (sub-dermally on the back) dispensing either the test compound (at least about 100 mg/kg/day) or vehicle. The animals are euthanized after 14 days and their organs prepared for histological examination. Single metastatic cells and foci are visualized and quantitated by fluorescence microscopy or light microscopic histochemistry or by grinding the tissue and quantitative colorimetric assay of the detectable label.
(§1) In addition to Å6, other related peptide compounds described above are tested for efficacy in vivo in the 3LL model (as provided above) as well as the PC-3 model. PC-3 cells transfected with the gene encoding the enzyme chloramphenicol acetyl-transferase (CAT) are inoculated into mice i.v. at doses of 1×10^6 cells per mouse. These mice are implanted with a minipump, as above, which dispenses 100 mg/kg/day of the peptide or vehicle over a period of 14 or 21 days. At termination of treatment, the animals are euthanized and the tumor marker probe is assayed in regional lymph nodes, femurs, lungs, and brain.

3LL = 3LL metastasis model, related peptides; parameters: species or system mice; conditions: mouse, in vivo
Excerpt: This model has been utilized by a number of investigators. See, for example, Gorelik, E. et al., J. Nat'l. Canc. Inst. 65:1257-1264 (1980); Gorelik, E. et al., Rec. Results Canc Res. 75:20-28 (1980); Isakov, N. et al., Invasion Metas. 2:12-32 (1982); Talmadge J. E. et al., J. Nat'l. Canc. Inst. 69:975-980 (1982); Hilgard, P. et al, Br. J. Cancer 35:78-86 (1977)). Test mice are male C57BL/6 mice, 2-3 months old. Following sc, im, or intra-footpad implantation, this tumor produces metastases, preferentially in the lungs. With some lines of the tumor, the primary tumor exerts anti-metastatic effects and must first be excised before study of the metastatic phase (see also U.S. Pat. No. 5,639,725).
Single-cell suspensions are prepared from solid tumors by treating minced tumor tissue with a solution of 0.3% trypsin. Cells are washed 3 times with PBS (pH 7.4) and suspended in PBS. Viability of the 3LL cells prepared in this way is generally about 95-99% (by trypan blue dye exclusion). Viable tumor cells (3×10^4-5×10^6) suspended in 0.05 ml PBS are injected subcutaneously, either in the dorsal region or into one hind foot pad of C57BL/6 mice. Visible tumors appear after 3-4 days after dorsal sc injection of 10^6 cells. The day of tumor appearance and the diameters of established tumors are measured by caliper every two days.
The treatment is given as one or two doses of peptide or derivative, per week. In another embodiment, the peptide is delivered by osmotic minipump.
Lungs are removed and weighed. Lungs are fixed in Bouin's solution and the number of visible metastases is recorded. The diameters of the metastases are also measured using a binocular stereoscope equipped with a micrometer-containing ocular under 8× magnification. On the basis of the recorded diameters, it is possible to calculate the volume of each metastasis. To determine the total volume of metastases per lung, the mean number of visible metastases is multiplied by the mean volume of metastases. To further determine metastatic growth, it is possible to measure incorporation of ^125IdUrd into lung cells (Thakur, M. L. et al., J. Lab. Clin. Med. 89:217-228 (1977). Ten days following tumor amputation, 25 μg of fluorodeoxyuridine is inoculated into the peritoneums of tumor-bearing (and, if used, tumor-resected mice). After 30 min, mice are given 1 μCi of ^125IdUrd (iododeoxyuridine). One day later, lungs and spleens are removed and weighed, and a degree of ^125IdUrd incorporation is measured using a gamma counter.
as §1

Acute toxicity in mice = assay type: in vivo; conditions: observed for 3 days
Experimental: Acute toxicity was evaluated at three different doses of Å6 (1500 mg/kg, 500 mg/kg and 250 mg/kg). Mice (n=6) were infused (i.v,) with a bolus of Å6 over 5-10 minutes and observed for 3 days.

[2] = cynomolgus monkey, in vivo, iv, 37.5 mg/kg
Excerpt: An LC/MS assay developed for the detection of Å6 in plasma has been validated for mouse and monkey plasma.

Substance: Ac-KPSSPPEE-NH2 [Å6, CH3CO-Lys-Pro-Ser-Ser-Pro-Pro-Glu-Glu-NH2]
- inhibition of gelatinase activity [1]: did not inhibit
- anti-proliferative effect, Mat B-III (Mat B-III): No anti-proliferative effects
- inhibition of binding of uPA to uPAR (uPAR): no effect
- differentiation of the vessels (U87 tumors; qualitative): fewer branching vessels
- microvessel density (CD31+ foci), angiogenesis (U87 tumors; tumor sections, mouse-CD31 immunostaining): inhibited angiogenesis to some extent
- metastasis, PC-3 model (PC-3 cells): markedly inhibited
- metastasis, 3LL model (3LL): markedly inhibited
- overt toxicity (Acute toxicity in mice; 1500, 500 and 250 mg/kg i.v. bolus over 5-10 minutes): No evidence for overt toxicity
- survival after acute dosing (Acute toxicity in mice; 1500, 500 and 250 mg/kg i.v. bolus): all the animals survived
- clearance [2]: 0.7 mL/min/kg
- half-life [2]: 24 min
